One data set in a line: Forced swim test (rats). It counts as in vivo, rat. The conditions noted are these: three doses, 5 min test, vehicle 81 s. The protocol:
Forced Swim Test (FST; Rats) The FST in rats was conducted as previously described (Porsolt et al., 2001). On day 1, rats were placed in a cylindrical chamber (20 cm in diameter, 46 cm deep) filled to a height of 38 cm with room temperature water for 15 min. After the completion of this pre-exposure test, animals were removed from the apparatus, dried with towels and placed under a heat lamp for ˜30 min. […] Animals were treated with these same doses again 20 h and 23 h after the initial dose. Twenty-four h after the pre-exposure, animals were re-introduced to the apparatus and video-recorded for 5 min. Immobility was hand-scored for each video record by a treatment blind observer (P.A.F.) using ANYmaze (Stoelting) to record the data.

The nature of another data set: Marble burying (mice). The conditions noted are these: 15 min test, vehicle mean 11 of 20. It counts as in vivo, mouse. On the procedure:
Marble Burying (Mice) After a 1 h period of acclimation to the testing room, the mice (n=6-10 per group) were injected i.p. with saline, EDDP, EMDP, or CDP at the doses indicated. Ten minutes later, the mice were placed individually in small cages (26×20×14 cm), in which twenty marbles had been equally distributed on top of mouse bedding (5-cm deep), and a wire lid was placed on top of the cage. Mice were left undisturbed for 15 min, after which time the number of buried marbles (i.e., those covered by bedding three-quarters or more) was counted.

The nature of the next data set: Forced swim test (mice). It counts as in vivo, mouse. The conditions noted are these: 6 min test. On the procedure: Forced Swim Test (FST; Mice) The FST in mice was conducted as previously described [11]. Briefly, 10 min following i.p. injection of saline, EDDP or EMDP, mice were placed in Plexiglas cylinders filled with water (25° C.) for 6 min while being videotaped. The forced swim score for the entire 6 min test was assessed using the Cleversystems videotracking system (CleverSys) and confirmed with visual scoring by a trained observer. A mouse was judged to be immobile when making only those movements necessary to keep its head above water.

The next data set has as its system opiate receptors. The data set can be described thus: [3H]-naloxone binding competition in rat forebrain membranes. Conditions: for apparent affinity, fold lower than that of methadone: rat forebrain [3H]-naloxone binding; for Ki: 2 nM [3H]-naloxone, single-site model.
Data set [1] can be described thus: Elevated plus maze (rats). It counts as in vivo, rat. Conditions: for mean duration in the open arms of the elevated plus maze: 30 min after drug, vehicle 104 s; for percentage of entries made into the open arms of the plus maze: vs vehicle; for latency to first entry in the open arms: vs vehicle (data not shown). The protocol:
Elevated Plus Maze (Rats) Plus maze testing was performed and scored as previously described (Forcelli and Heinrichs, 2008; Forcelli et al., 2012), in a standard grey rat elevated plus maze (50 cm arms, elevated 40 cm off the ground [Stoelting Co., Wood Dale, Ill.]). Testing was conducted under 20 lux red light, 30 min after drug administration. The number of arm entries and time spent in open and closed arms were recorded using ANYmaze (Stoelting Co, Wood Dale, Ill.).

Data set [2] can be described thus: Open field locomotor activity (rats). The class given is in vivo, rat. Conditions: 30 min after injection. The protocol: Locomotor Activity (Rats) Locomotor activity was measured 30 minutes after sc injection of test compound. Animals were placed in a Plexiglass enclosure (16″×16″×16″, TruScan Arena, Coulbourn Instruments, Whitehall, Pa.) with 770 lux illumination over the center of the arena. Animals were allowed to explore for 20 min, during which total distance traveled was recorded using ANYmaze software (Stoelting Co., Wood Dale, Ill.), as previously described (Forcelli et al., 2012).

The target in another data set is rat α3β4 nAChR channels (Rattus norvegicus, UniProt P04757+P12392). Conditions: 2001, cited from earlier work; for block of rat α3β4 nAChR channels: Xiao et al.
rat α3β4 nAChR channels, sequence (P04757 26-499): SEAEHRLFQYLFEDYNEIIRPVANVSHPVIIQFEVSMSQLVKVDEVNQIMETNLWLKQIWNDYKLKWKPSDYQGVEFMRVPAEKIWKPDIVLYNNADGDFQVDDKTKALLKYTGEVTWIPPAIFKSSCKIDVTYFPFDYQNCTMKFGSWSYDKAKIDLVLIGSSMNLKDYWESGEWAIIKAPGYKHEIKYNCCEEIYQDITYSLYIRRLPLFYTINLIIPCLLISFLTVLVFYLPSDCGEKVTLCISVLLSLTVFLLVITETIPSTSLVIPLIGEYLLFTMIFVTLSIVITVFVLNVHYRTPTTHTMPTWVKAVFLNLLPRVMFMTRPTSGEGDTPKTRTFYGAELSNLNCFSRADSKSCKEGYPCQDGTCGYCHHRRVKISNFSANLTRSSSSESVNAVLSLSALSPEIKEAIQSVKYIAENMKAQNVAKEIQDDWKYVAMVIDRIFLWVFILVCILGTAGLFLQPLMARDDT
rat α3β4 nAChR channels, sequence (P12392 21-495): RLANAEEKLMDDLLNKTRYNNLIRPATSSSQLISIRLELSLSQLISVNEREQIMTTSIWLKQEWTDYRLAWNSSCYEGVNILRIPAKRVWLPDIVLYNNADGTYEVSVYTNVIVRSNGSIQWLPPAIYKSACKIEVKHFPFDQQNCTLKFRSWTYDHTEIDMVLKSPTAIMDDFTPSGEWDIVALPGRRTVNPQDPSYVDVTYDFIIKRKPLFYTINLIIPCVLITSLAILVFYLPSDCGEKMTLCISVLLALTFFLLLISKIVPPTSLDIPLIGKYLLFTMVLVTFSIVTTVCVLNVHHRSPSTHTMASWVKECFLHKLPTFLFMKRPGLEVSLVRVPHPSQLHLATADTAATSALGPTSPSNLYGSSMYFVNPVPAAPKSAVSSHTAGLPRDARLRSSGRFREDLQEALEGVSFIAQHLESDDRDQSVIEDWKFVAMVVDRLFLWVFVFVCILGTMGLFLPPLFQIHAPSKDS
Data set [3] in a line: Home cage locomotor activity (mice). It counts as in vivo, mouse. The conditions noted are these: mice, 0.5, 1, 5, 10 mg/kg i.p., 60 min. The protocol:
Locomotor Activity (Mice) Locomotor activity in response to i.p. drug administration was analyzed in a “home cage” activity monitoring system (Med Associates, St. Albans, Vt.), as previously described (Walters and Blendy, 2001; Mackler et al., 2008; Isiegas et al., 2009). Briefly, a novel cage identical to the home cage (28.9 cm×17.8 cm 12 cm) was placed in a photo-beam frame (30 cm×24 cm×8 cm) with sensors arranged in an 8-beam array strip. For dose studies, mice were injected i.p. with saline or drug. Immediately following drug administration, the mice were placed individually in the cages. Beam break data was monitored and recorded for 60 min.

A short description of data set [4]: Eyelid ptosis assessment (rats). It counts as in vivo, rat. The protocol: Ptosis was assessed as previously described (Rubin et al., 1957). Each animal was photographed while gently restrained by hand. Photographs were analyzed by a treatment blind observer (P.A.F.) and assigned a score of 0 (no ptosis, eye completely open), 1 (mild, eye partially closed), 2 (moderate, eye half closed), 3 (severe, eye […] closed), or 4 (complete, eye completely closed).

The next data set has as its target T1, human α3β4 nAChRs (Homo sapiens, UniProt P30926+P32297).
T1 construct: expressed in transfected cells
The data set can be described thus: 86Rb+ efflux assay, inhibition of nicotine-stimulated efflux, α3β4 nAChRs. The class given is cell-based. The protocol: Stable cell lines and ^86Rb^+ efflux Assay. […] These cell lines were maintained in minimum essential medium (MEM) supplemented with 10% fetal bovine serum, 100 units/mL penicillin G, […] and selective antibiotics at 37° C. with 5% CO2 in a humidified incubator. Tissue culture medium and antibiotics were obtained from Invitrogen Corporation (Carlsbad, Calif.), unless otherwise stated. Fetal bovine serum was obtained from Gemini Bio-Products (Woodland, Calif.).
In brief, cells were plated into 24-well plates coated with poly-D-lysine. […] The cells were then incubated in growth medium (0.5 mL/well) containing ^86Rb^+ (2 μCi/mL) for 4 hour at 37° C. The loading mixture was then aspirated, and the cells were washed four times with 1 mL buffer (15 mM HEPES, 140 mM NaCl, 2 mM KCl, 1 mM MgSO4, 1.8 mM CaCl2), 11 mM Glucose, pH 7.4). One mL of buffer with or without compounds to be tested was then added to each well. After incubation for 2 min, the assay buffer was collected for measurements of ^86Rb^+ released from the cells. Cells were then lysed by adding 1 mL of 100 mM NaOH to each well, and the lysate was collected for determination of the amount of ^86Rb^+ that was in the cells at the end of the efflux assay. Radioactivity of assay samples and lysates was measured by liquid scintillation counting. Total loading (cpm) was calculated as the sum of the assay sample and the lysate of each well, and the amount of ^86Rb^+ efflux was expressed as a percentage of ^86Rb^+ loaded. Stimulated ^86Rb^+ efflux was defined as the difference between efflux in the presence and absence of nicotine. […] IC50 values were determined by nonlinear least-squares regression analyses (GraphPad. San Diego, Calif.).

“And” between values parts separate entries of the source, which are not always exact repeats. Identical values can stand only once.

T1 sequence (P32297 32-505): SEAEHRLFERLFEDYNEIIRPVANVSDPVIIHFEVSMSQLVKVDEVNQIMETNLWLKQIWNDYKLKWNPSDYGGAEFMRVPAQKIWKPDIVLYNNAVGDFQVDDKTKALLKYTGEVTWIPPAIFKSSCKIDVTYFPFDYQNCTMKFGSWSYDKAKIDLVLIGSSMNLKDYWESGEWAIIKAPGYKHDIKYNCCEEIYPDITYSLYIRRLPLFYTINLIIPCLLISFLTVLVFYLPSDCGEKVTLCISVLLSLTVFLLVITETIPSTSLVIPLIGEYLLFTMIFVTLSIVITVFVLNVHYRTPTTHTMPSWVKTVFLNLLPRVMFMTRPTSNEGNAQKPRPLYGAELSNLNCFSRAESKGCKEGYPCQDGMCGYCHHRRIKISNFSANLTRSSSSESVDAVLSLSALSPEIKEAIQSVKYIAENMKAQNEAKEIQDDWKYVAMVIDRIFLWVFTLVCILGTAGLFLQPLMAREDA
T1 sequence (P30926 22-498): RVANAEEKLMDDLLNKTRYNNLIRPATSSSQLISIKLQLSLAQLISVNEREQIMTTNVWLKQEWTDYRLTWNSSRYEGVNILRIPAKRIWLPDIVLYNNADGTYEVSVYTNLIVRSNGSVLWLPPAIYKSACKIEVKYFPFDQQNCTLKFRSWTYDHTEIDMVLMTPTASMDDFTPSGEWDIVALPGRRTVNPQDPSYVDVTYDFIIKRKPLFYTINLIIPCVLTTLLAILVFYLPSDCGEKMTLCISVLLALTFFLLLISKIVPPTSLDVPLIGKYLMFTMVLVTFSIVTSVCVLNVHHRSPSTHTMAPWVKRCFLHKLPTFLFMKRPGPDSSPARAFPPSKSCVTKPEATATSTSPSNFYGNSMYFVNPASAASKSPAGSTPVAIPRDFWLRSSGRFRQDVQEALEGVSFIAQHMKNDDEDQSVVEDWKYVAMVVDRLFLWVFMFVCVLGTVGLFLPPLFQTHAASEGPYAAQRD

As a reminder, the Ki is a measure of affinity in units of concentration, obtained from inhibition or displacement. Lower therefore signals a stronger hold on the target. For the compound `CC=C1N(C)C(C)CC1(c1ccccc1)c1ccccc1` (racemic) [EDDP, 2-ethylidene-1,5-dimethyl-3,3-diphenylpyrrolidine], the “immobile time in forced swim test vs vehicle” value in “Forced swim test (rats)” (10 mg/kg s.c.) was “without effect”. Also, the “number of marbles buried vs vehicle” value in “Marble burying (mice)” (5 mg/kg i.p.) is listed as “buried significantly fewer marbles”; in “Marble burying (mice)” (10 mg/kg i.p.), “did not reach statistical significance”. The “duration of immobility in forced swim test vs vehicle” value in the data set “Forced swim test (mice)” (1 mg/kg i.p.), in the data set “Forced swim test (mice)” (5 mg/kg i.p.) and in the data set “Forced swim test (mice)” (10 mg/kg i.p.) was “did not produce a significant effect” each time. The “apparent affinity, fold lower than that of methadone” value in the data set on opiate receptors is ~83 fold and 84 fold. Further, the “fraction of [3H]-naloxone binding sites competed for” value with opiate receptors (rat forebrain membranes) was “nearly all of the binding sites”. On opiate receptors (rat forebrain membranes), the Ki was 0.918 µM. In addition, the “mean duration in the open arms of the elevated plus maze” value in [1] (10 mg/kg s.c.) was determined as 80 s. For the same compound, the “percentage of entries made into the open arms of the plus maze” value in data set [1] was “the groups did not differ”. The “latency to first entry in the open arms” value in data set [1] is “did not differ as a function of treatment group”. Moreover, the “open field locomotor activity” value in [2] (10 mg/kg s.c.) is given as “neither EDDP nor EMDP significantly altered”. Also, the “block of rat α3β4 nAChR channels” value at rat α3β4 nAChR channels is on record as “potently block”.
For `CCC1=NC(C)CC1(c1ccccc1)c1ccccc1` (racemic) [EMDP, 2-ethyl-5-methyl-3,3-diphenyl-1-pyrroline], the “immobile time in forced swim test vs vehicle” value in “Forced swim test (rats)” (10 mg/kg s.c.) and in “Forced swim test (rats)” (20 mg/kg s.c.) was “reduced immobile time” each time. Also, in data set [3], the “overall home cage locomotor activity” value was “did not significantly affect”. Further, the “number of marbles buried vs vehicle” value in “Marble burying (mice)” (5 mg/kg i.p.) and in the data set “Marble burying (mice)” (10 mg/kg i.p.) was “buried significantly fewer marbles” each time. Also, the entries for the “duration of immobility in forced swim test vs vehicle” value in the data set “Forced swim test (mice)” (5 mg/kg i.p.) and in “Forced swim test (mice)” (10 mg/kg i.p.) were “did not affect immobility time” and “significantly reduced”, respectively. Also, in the data set with opiate receptors (at a concentration of 100 μM), the “fraction of [3H]-naloxone binding sites competed for” value stood at 60%. The “apparent affinity, fold lower than that of methadone” value in the data set on opiate receptors was about 1900 fold. The Ki on opiate receptors (rat forebrain membranes) is 21 µM. The “mean duration in the open arms of the elevated plus maze” value in data set [1] (s.c., dose not given) is reported as 143 s. Moreover, in data set [1], the “percentage of entries made into the open arms of the plus maze” value was “the groups did not differ”. Besides, the “latency to first entry in the open arms” value in [1] is reported as “did not differ as a function of treatment group”. The “open field locomotor activity” value in data set [2] (5 mg/kg s.c.) is given as “neither EDDP nor EMDP significantly altered”. Moreover, the “eyelid ptosis quantified over 3 h” value in data set [4] (20 mg/kg) is given as “ptosis was not apparent at any time”. Further, the “ptosis observed during forced swim tests” value in data set [4] (10 and 20 mg/kg) is recorded as “did not produce ptosis”. The “potency relative to mecamylamine in blocking human α3β4 nAChRs” value on human α3β4 nAChRs is recorded as “half as potent as mecamylamine”. Moreover, the “potency relative to mecamylamine in blocking rat α3β4 nAChRs” value at rat α3β4 nAChR channels (Xiao et al) is recorded as “one-sixth as potent”. Besides, the “block of rat α3β4 nAChR channels” value at rat α3β4 nAChR channels is “potently block”.

These data come from US11278522B2, “Use of methadone metabolites for treatment of anxiety and depression” (Georgetown University, priority 2015, dated 2022).
